According to patent US20150087673A1, “METHODS FOR USING AND BIOMARKERS FOR AMPK-ACTIVATING COMPOUNDS” (RIGEL PHARMACEUTICALS, INC., priority 2013, published 2015):

test system: AMPK; assay: AMPK activation assay (enzyme-linked immunosorbent assay); type: cell-based
Method: Compounds were assayed for their ability to activate AMPK using an enzyme-linked immunosorbent assay. Reagents and procedures for measuring AMPK activation are well known and kits for AMPK activation assays are commercially available.

O=C(Nc1ccc(-c2ccsc2)cc1)c1ccc(C(=O)N2CCN(Cc3ccc(F)cc3)CC2)cn1 [Compound 62, 5-(4-(4-fluorobenzyl)piperazine-1-carbonyl)-N-(4-(thiophen-3-yl)phenyl)picolinamide] was tested. Which EC50 did it give?
The EC50 was < 0.5 µM.

For N#Cc1ccc(Oc2ccc(NC(=O)c3ccc(C(=O)N4CCN(Cc5ccc(F)cc5)CC4)cn3)cn2)cc1 [Compound 63, 5-(4-(4-fluorobenzyl)piperazine-1-carbonyl)-(6-(4-cyanophenoxy)pyridin-3-yl)picolinamide], which EC50 is on record?
Its EC50 is < 0.5 µM.

With N#Cc1cccc(Oc2ccc(NC(=O)c3ccc(C(=O)N4CCN(Cc5ccc(F)cc5)CC4)cn3)cn2)c1 [Compound 64, 5-(4-(4-fluorobenzyl)piperazine-1-carbonyl)-(6-(3-cyanophenoxy)pyridin-3-yl)picolinamide] as the compound, how does the EC50 read?
The EC50 was < 0.5 µM.

How did the EC50 turn out when O=C(Nc1ccc(Oc2ccc(F)cc2)nc1)c1ccc(C(=O)N2CCN(Cc3ccc(F)cc3)CC2)cn1 [Compound 65, 5-(4-(4-fluorobenzyl)piperazine-1-carbonyl)-N-(6-(4-fluorophenoxy)pyridin-3-yl)picolinamide] was run?
The EC50 was < 0.5 µM.

COc1cc(C#N)ccc1OC1CCN(C(=O)c2ccc(C(=O)NC3CCN(Cc4ccc(C#N)cc4)CC3)nc2)CC1 [Compound 66, 5-(4-(4-cyano-2-methoxyphenoxy)piperidine-1-carbonyl)-N-(1-(4-cyanobenzyl)piperidin-4-yl)picolinamide] was tested. Which EC50 did it give?
Its EC50 is < 0.5 µM.

For O=C(Nc1ccc(Oc2ccc(F)cc2)nc1)c1ccc(C(=O)N2CCC(F)(C(=O)c3ccc(F)cc3)CC2)cn1 [Compound 67, 5-(4-(4-fluoro-4-fluorobenzoyl)piperidine-1-carbonyl)-N-(6-(4-fluorophenoxy)pyridin-3-yl)picolinamide], which EC50 is on record?
Its EC50 is < 0.5 µM.

How did the EC50 turn out when N#Cc1ccc(CN2CCC(NC(=O)c3ccc(C(=O)N4CCC(F)(C(=O)c5ccc(F)cc5)CC4)cn3)CC2)cc1 [Compound 68, N-(1-(4-cyanobenzyl)piperidin-4-yl)-5-(4-(4-fluoro-4-fluorobenzoyl)piperidine-1-carbonyl)picolinamide] was run?
The EC50 was < 0.5 µM.

How did the EC50 turn out when COc1ccc(OC2CCN(C(=O)c3ccc(C(=O)Nc4ccc(Oc5ccc(F)cc5)nc4)nc3)CC2)cc1 [Compound 70, 5-(4-(4-methoxyphenoxy)piperidine-1-carbonyl)-N-(6-(4-fluorophenoxy)pyridin-3-yl)picolinamide] was run?
The EC50 was < 0.5 µM.

O=C(NC1CCN(Cc2ccccc2)CC1)c1ccc(C(=O)N2CCN(Cc3ccccc3)CC2)cn1 [Compound 72, 5-(4-benzylpiperazine-1-carbonyl)-N-(1-benzylpiperidin-4-yl)picolinamide] was tested. Which EC50 did it give?
The EC50 was < 0.5 µM.

For O=C(c1ccc(C(=O)N2CCN(Cc3ccccc3)CC2)nc1)N1CCN(Cc2ccccc2)CC1 [Compound 73, pyridine-2,5-diylbis((4-benzylpiperazin-1-yl)methanone)], which EC50 is on record?
The EC50 was 5 to 10 µM.

For O=C(NC1CCN(Cc2ccccc2)CC1)c1ccc(C(=O)N2CCN(Cc3ccccc3)CC2)nc1 [Compound 74, 6-(4-benzylpiperazine-1-carbonyl)-N-(1-benzylpiperidin-4-yl)nicotinamide], which EC50 is on record?
The EC50 was < 0.5 µM.

N#Cc1ccc(CN2CCC(NC(=O)c3ccc(C(=O)N4CCN(C(=O)c5ccc(C(=O)NC6CCN(Cc7ccc(C#N)cc7)CC6)nc5)CC4)cn3)CC2)cc1 [Compound 75, 5,5′-(piperazine-1,4-diylbis(oxomethylene))bis(N-(1-(4-cyanobenzyl)piperidin-4-yl)picolinamide)] was tested. Which EC50 did it give?
The EC50 was 1 to 5 µM.

With N#Cc1ccc(CN2CCC(NC(=O)c3ccc(C(=O)N4CCN(C(=O)c5ccc(F)cc5)CC4)cn3)CC2)cc1 [Compound 76, N-(1-(4-cyanobenzyl)piperidin-4-yl)-5-(4-(4-fluorobenzoyl)piperazine-1-carbonyl)picolinamide] as the compound, how does the EC50 read?
Its EC50 is < 0.5 µM.

With COc1ccc(C(=O)N2CCN(C(=O)c3ccc(C(=O)NC4CCN(Cc5ccc(C#N)cc5)CC4)nc3)CC2)cc1 [Compound 77, N-(1-(4-cyanobenzyl)piperidin-4-yl)-5-(4-(4-methoxybenzoyl)piperazine-1-carbonyl)picolinamide] as the compound, how does the EC50 read?
Its EC50 is < 0.5 µM.

Which EC50 does the source give for N#Cc1ccc(CN2CCC(NC(=O)c3ccc(C(=O)N4CCN(S(=O)(=O)c5ccc(F)cc5)CC4)cn3)CC2)cc1 [Compound 78, N-(1-(4-cyanobenzyl)piperidin-4-yl)-5-(4-(4-fluorophenylsulfonyl)piperazine-1-carbonyl)picolinamide] here?
Its EC50 is < 0.5 µM.

How did the EC50 turn out when COc1ccc(S(=O)(=O)N2CCN(C(=O)c3ccc(C(=O)NC4CCN(Cc5ccc(C#N)cc5)CC4)nc3)CC2)cc1 [Compound 79, N-(1-(4-cyanobenzyl)piperidin-4-yl)-5-(4-(4-methoxyphenylsulfonyl)piperazine-1-carbonyl)picolinamide] was run?
The EC50 was 0.5 to 1 µM.

Which EC50 does the source give for N#Cc1ccc(CN2CCC(NC(=O)c3ccc(C(=O)N4CCN(C(=O)c5ccccc5)CC4)cn3)CC2)cc1 [Compound 80, 5-(4-benzoylpiperazine-1-carbonyl)-N-(1-(4-cyanobenzyl)piperidin-4-yl)picolinamide] here?
Its EC50 is 1 to 5 µM.

Which EC50 does the source give for CC(C)(C)C(=O)N1CCN(C(=O)c2ccc(C(=O)NC3CCN(Cc4ccc(C#N)cc4)CC3)nc2)CC1 [Compound 81, N-(1-(4-cyanobenzyl)piperidin-4-yl)-5-(4-pivaloylpiperazine-1-carbonyl)picolinamide] here?
Its EC50 is 0.5 to 1 µM.

For N#Cc1ccc(CN2CCC(NC(=O)c3ccc(C(=O)N4CCN(S(=O)(=O)c5ccccc5)CC4)cn3)CC2)cc1 [Compound 82, N-(1-(4-cyanobenzyl)piperidin-4-yl)-5-(4-(phenylsulfonyl)piperazine-1-carbonyl)picolinamide], which EC50 is on record?
The EC50 was 0.5 to 1 µM.

How did the EC50 turn out when N#Cc1ccc(CN2CCC(NC(=O)c3ccc(C(=O)N4CCN(C5CCOCC5)CC4)cn3)CC2)cc1 [Compound 83, N-(1-(4-cyanobenzyl)piperidin-4-yl)-5-(4-(tetrahydro-2H-pyran-4-yl)piperazine-1-carbonyl)picolinamide] was run?
The EC50 was > 10 µM.

How did the EC50 turn out when CC(C)N1CCN(C(=O)c2ccc(C(=O)NC3CCN(Cc4ccc(C#N)cc4)CC3)nc2)CC1 [Compound 84, N-(1-(4-cyanobenzyl)piperidin-4-yl)-5-(4-isopropylpiperazine-1-carbonyl)picolinamide] was run?
Its EC50 is 1 to 5 µM.

For Cc1cc(CN2CCN(C(=O)c3ccc(C(=O)NC4CCN(Cc5ccccc5)CC4)nc3)CC2)no1 [Compound 85, N-(1-benzylpiperidin-4-yl)-5-(4-((5-methylisoxazol-3-yl)methyl)piperazine-1-carbonyl)picolinamide], which EC50 is on record?
The EC50 was 1 to 5 µM.

N#Cc1ccc(CN2CCC(NC(=O)c3cccc(C(=O)NC4CCN(Cc5ccc(C#N)cc5)CC4)n3)CC2)cc1 [Compound 86, N2,N6-bis(1-(4-cyanobenzyl)piperidin-4-yl)pyridine-2,6-dicarboxamide] was tested. Which EC50 did it give?
Its EC50 is 1 to 5 µM.

Which EC50 does the source give for O=C(NC1CCN(Cc2ccc(F)cc2)CC1)c1cccc(C(=O)NC2CCN(Cc3ccc(F)cc3)CC2)n1 [Compound 87, N2,N6-bis(1-(4-fluorobenzyl)piperidin-4-yl)pyridine-2,6-dicarboxamide] here?
Its EC50 is 1 to 5 µM.

How did the EC50 turn out when O=C(c1ccc(C(=O)N2CCN(CCc3ccccc3)CC2)nc1)N1CCN(Cc2ccc(F)cc2)CC1 [Compound 88, (4-(4-fluorobenzyl)piperazin-1-yl)(6-(4-phenethylpiperazine-1-carbonyl)pyridin-3-yl)methanone] was run?
Its EC50 is 1 to 5 µM.

For N#Cc1ccc(CN2CCC(NC(=O)c3ccc(C(=O)N4CCN(C(=O)C5CCCCC5)CC4)cn3)CC2)cc1 [Compound 89, N-(1-(4-cyanobenzyl)piperidin-4-yl)-5-(4-(cyclohexanecarbonyl)piperazine-1-carbonyl)picolinamide], which EC50 is on record?
Its EC50 is 1 to 5 µM.

With O=C(c1ccc(C(=O)N2CCN(CCc3ccccc3)CC2)nc1)N1CCN(c2ccccc2)CC1 [Compound 90, (4-phenethylpiperazin-1-yl)(5-(4-phenylpiperazine-1-carbonyl)pyridin-2-yl)methanone] as the compound, how does the EC50 read?
Its EC50 is > 10 µM.

With CC(C)N1CCN(C(=O)c2ccc(C(=O)N3CCN(CCc4ccccc4)CC3)nc2)CC1 [Compound 91, (4-isopropylpiperazin-1-yl)(6-(4-phenethylpiperazine-1-carbonyl)pyridin-3-yl)methanone] as the compound, how does the EC50 read?
Its EC50 is > 10 µM.

How did the EC50 turn out when O=C(c1ccc(C(=O)N2CCN(CCc3ccccc3)CC2)nc1)N1CCN(CCc2ccccc2)CC1 [Compound 92, pyridine-2,5-diylbis((4-phenethylpiperazin-1-yl)methanone)] was run?
The EC50 was > 10 µM.

How did the EC50 turn out when O=C(c1cccc(C(=O)N2CCN(Cc3ccc(F)cc3)CC2)n1)N1CCN(CCc2ccccc2)CC1 [Compound 93, (4-(4-fluorobenzyl)piperazin-1-yl)(6-(4-phenethylpiperazine-1-carbonyl)pyridin-2-yl)methanone] was run?
The EC50 was > 10 µM.

Which EC50 does the source give for O=C(c1cccc(C(=O)N2CCN(c3ccccc3)CC2)n1)N1CCN(Cc2ccc(F)cc2)CC1 [Compound 94, (4-(4-fluorobenzyl)piperazin-1-yl)(6-(4-phenylpiperazine-1-carbonyl)pyridin-2-yl)methanone] here?
The EC50 was > 10 µM.

With N#Cc1ccc(CN2CCC(NC(=O)c3ccc(C(=O)N4CCN(CC5CCCCC5)CC4)cn3)CC2)cc1 [Compound 95, N-(1-(4-cyanobenzyl)piperidin-4-yl)-5-(4-(cyclohexylmethyl)piperazine-1-carbonyl)picolinamide] as the compound, how does the EC50 read?
The EC50 was < 0.5 µM.

Which EC50 does the source give for O=C(NC1CCN(Cc2ccccc2)CC1)c1ccc(C(=O)N2CCN(c3ccncc3)CC2)cn1 [Compound 96, N-(1-benzylpiperidin-4-yl)-5-(4-(pyridin-4-yl)piperazine-1-carbonyl)picolinamide] here?
The EC50 was > 10 µM.

Which EC50 does the source give for O=C(NC1CCN(Cc2ccccc2)CC1)c1ccc(C(=O)N2CCN(c3ccccc3)CC2)cn1 [Compound 97, N-(1-benzylpiperidin-4-yl)-5-(4-phenylpiperazine-1-carbonyl)picolinamide] here?
Its EC50 is 1 to 5 µM.

CCOC(=O)C(c1ccccc1)N1CCC(NC(=O)c2ccc(C(=O)N3CCN(Cc4ccc(F)cc4)CC3)cn2)CC1 (stereo not shown) [Compound 98, ethyl 2-(4-(5-(4-(4-fluorobenzyl)piperazine-1-carbonyl)picolinamido)piperidin-1-yl)-2-phenylacetate] was tested. Which EC50 did it give?
The EC50 was 1 to 5 µM.

How did the EC50 turn out when N#Cc1ccc(CC2CCC(NC(=O)c3cccc(C(=O)N4CCN(Cc5ccc(F)cc5)CC4)n3)CC2)cc1 (stereo not shown) [Compound 99, N-(4-(4-cyanobenzyl)cyclohexyl)-6-(4-(4-fluorobenzyl)piperazine-1-carbonyl)picolinamide] was run?
Its EC50 is 5 to 10 µM.

With N#Cc1ccc(CN2CC[C@@H](NC(=O)c3ccc(C(=O)N4CCN(Cc5ccc(F)cc5)CC4)cn3)[C@@H](F)C2)cc1 [Compound 100] as the compound, how does the EC50 read?
The EC50 was < 0.5 µM.
